Experiment [1] concerns C57BL6/J mice. Nature of the experiment: Short-term memory impairment caused by amyloid peptide aggregates (icv Aβ oligomers), Y maze test. Format: in vivo, mouse. To be noted: 4 mg/kg body weight per os once daily for four days; Y maze at day 4 post Aβ. The procedure: (§1) In vivo experiments were carried out according to the National Institute of Health guidelines for the care and use of laboratory animals, approved by the French Ministry for Research and Technology. In the course of experiments, animals were housed at a standard temperature (22±1° C.) and in a light-controlled environment (lights on from 7 a.m. to 8 p.m.) with ad libitum access to food and water. Male C57BL/6 mice (C57BL/6J Rj, ref. SC-CJ-12w-M, Janvier, France) were housed 5 animals per cage. From one week before the start of the experiment until the end of the experiment, mice were housed individually. Animals were monitored twice-a-day by laboratory personnel (8 a.m. and 4 p.m.). In this project, young (14 weeks old) as well as aged (15-16 months old) mice were used. Experiments were carried out using 12 mice per experimental group.
Investigation of short-term working memory—Y maze test Y maze tests were carried out as previously described. Prior to testing, mice were brought to the experimental room for at least 30 min to acclimatize to experimental room conditions. The Y maze is made of opaque Plexiglas and each arm is 40 cm long, 16 cm high, 9 cm wide and positioned at equal angles. The apparatus was placed in the test room in such a way that it was brightened homogeneously with 12-15 lux in the arms as well as in the central zone. One mouse at a time was placed at the end of one arm and was allowed to move in the maze freely during a 5 min examination. Each arm entry was recorded with those entries being counted where the mouse completely placed its hind paws in the chosen arm. […] Results were calculated as the percentage of the ratio of actual detected alternations to possible alternations (defined as the number of total arm entries minus 2).
For the examination of memory impairment caused by Aβ oligomers, a mouse model developed and validated by SynAging was used. […] At day 4 post Aβ treatment, short-term memory was assessed with the Y maze test. […]
At day 4 post Aβ treatment, short-term memory was assessed with the Y maze test.

In experiment [2] the test system is C57BL6/J mice. Nature of the experiment: Scopolamine-induced short-term memory impairment, Y maze test. The experiment is classed as in vivo, mouse. The conditions noted are these: per os gavage; scopolamine 0.6 mg/kg i.p. 30 min prior to Y maze test. The procedure:
as §1
Investigation of short-term working memory—Y maze test Y maze tests were carried out as previously described. Prior to testing, mice were brought to the experimental room for at least 30 min to acclimatize to experimental room conditions. […] Each arm entry was recorded with those entries being counted where the mouse completely placed its hind paws in the chosen arm. […] Results were calculated as the percentage of the ratio of actual detected alternations to possible alternations (defined as the number of total arm entries minus 2). […]

Experiment [3] deals with EPO gene. Nature of the experiment: Gene expression in primary astrocytes by qRT-PCR. The experiment is classed as cell-based, rat. The conditions noted are these: 3 h, Example 2 at 330 nM and 1000 nM, PBT2 at 1000 nM. The procedure:
(§2) Pure astrocyte culture was obtained from neonatal rats according to the protocol found in literature (Protocols for Neural Cell Culture 2001, pp 117-127. ch 9. Ruth Cole, Jean de Vellis. Preparation of Astrocyte, Oligodendrocyte, and Microglia Cultures from Primary Rat Cerebral Cultures). Astrocytes (1 million) were cultured in 100 mm TC-treated culture dishes (Orange Scientific, Belgium) in an incubator set at 37° C. and 5% CO2 with humid air. The R-enantiomeric derivative according to Example 2 was added to cells in two final concentrations: 330 nM and 1000 nM. Cells were also treated with 1000 nM PBT2 which bears the basic structure of the R-enantiomer according to Example 2 (8-hydroxy-quinoline ring) but contains conformational differences and was developed for the treatment of neurodegenerative disorders (Pub. No.: WO/2004/007461). Treatments were carried out with a 100 μM DMSO-based stock solution. Control cells were treated with the same amount of DMSO without the agent. Each treatment was conducted in three separate culture dishes. After treatment, cells were incubated at 37° C. for 3 h, then the medium was removed, cells were washed with PBS and total RNA was extracted from cells with the Accuzol™ Total RNA Extraction Solution (Bioneer, Daejeon, South Korea), according to the manufacturer's protocol. cDNA transcription was carried out with the High Capacity cDNA Reverse Transcription Kit (Life Technologies, Foster City, Calif., USA). During the test, the expression of four genes (PGK1, EPO, HMOX-1, VEGF) controlled by HIF1a was determined by qRT-PCR, with HPRT gene serving as a control. Relative expression of genes in treated samples was compared to untreated controls. The PCR was conducted with a LightCycler® Nano Instrument (Roche, Budapest, Hungary) in the presence of UPL (Universal Probe Library) probes (HPRT: 95, HMOX1: 4, EPO: 16, VEGF: 1, PGK1: 66), specific primers (HPRT1: 5′-gaccggttctgtcatgtcg-3′, HPRT2: 5′-[…]-3′; HMOX1-1: 5′-[…]-3′, HMOX1-2: 5′-ctgcagctcctcaaacagc-3′; EPO1: 5′-[…]-3′, EPO2: 5′-ccttctgcacagcccatt-3′; VEGF1: 5′-[…]-3′, VEGF2: 5′-[…]-3′; PGK1-1: 5′-[…]-3′, PGK1-2: 5′-gacttggctccattgtcca-3′) in 20 μl PCR reaction volume with 20 ng cDNA template and 10 μl Lightcycler DNA Probes Master (5×) Reagent Kit (Roche) according to the following protocol: activation of enzyme at 95° C. for 10 min, 50 cycles: denaturation at 95° C. for 15 sec, hybridization and polymerization, then detection at 60° C. for 30 sec.

The subject of experiment [4] is HMOX-1 gene. As to the kind of experiment: Gene expression in primary astrocytes by qRT-PCR. Format: cell-based, rat. The conditions noted are these: 3 h, Example 2 at 330 nM and 1000 nM, PBT2 at 1000 nM. The procedure:
as §2

Experiment [5] concerns PGK1 gene. Nature of the experiment: Gene expression in primary astrocytes by qRT-PCR. The experiment is classed as cell-based, rat. The conditions noted are these: in the cells. The procedure: as §2
Experiment [6] deals with VEGF gene. Nature of the experiment: Gene expression in primary astrocytes by qRT-PCR. The experiment is classed as cell-based, rat. The conditions noted are these: in the cells. The method, then: as §2
For experiment [7], the system named is BALB/c ear skin graft on C57BL/6 recipient mice. Nature of the experiment: Mouse skin transplantation, graft rejection scoring. The experiment is classed as in vivo. The conditions noted are these: 5 mg/kg once every day from transplantation; Example 2 orally, tacrolimus intraperitoneal; scoring at day 9 and day 10. The method, then: Mouse skin transplantation is a standard method to assay host T cell responses to MHC-disparate donor antigens, which protocol was followed in the present example (Garrod and Cahalan; 2008). Briefly, WT C57BL/6 recipient mice (8-12 weeks old) and WT BALB/c donor mice (8-12 weeks old) were anesthetized with a combination of 10 mg/kg Xylazine and 100 mg/kg Ketamine administered by i.p. injection and 0.05 mg/kg Buprenorphine was administered by subcutaneous injection for analgesia. Ear skin (1.0 cm2) from the WT BALB/c donor mouse was grafted onto the flank of the WT C57BL/6 recipient. The implanted skin (graft) was covered with a sterile bandage, which was removed on day 7 post-transplant.
Recipients received either no treatment (controls), or treated with compound according to Example 2 orally at 5 mg/kg dose, once every day until the end of the experiment from the day of transplantation. […]
Different scores were used to define the quality of the grafts: intact grafts (Score 0), early stages of rejection (Score 1-4, corresponding to first clear signals of graft rejection: 1; >25% rejection rate: 2; >50% rejection rate: 3; >75% rejection rate: 4) up to complete graft rejection (Score 5). […] Average scores with SEM were calculated for each group.

“Also recorded” adds a separate entry of the source.

For the molecule `Cc1ccnc(N[C@@H](c2ccc(C(F)(F)F)cc2)c2ccc3cccnc3c2O)n1` [Example 3, 7-[(S)-[(4-Methylpyrimidin-2-yl)amino][4-(trifluoromethyl)phenyl]methyl]quinolin-8-ol], the “inhibition of short-term memory impairment caused by fibrillar aggregates of amyloid peptides” value in experiment [1] is “did not inhibit”. Also, in experiment [2], the “inhibition of scopolamine-induced short-term memory impairment” value was “did not inhibit”. In experiment [3], the “activation of EPO gene expression” value is recorded as “capable to increase the gene activity; also recorded: highest inductive effect”. Further, the “activation of HMOX-1 gene expression” value in experiment [4] is recorded as “capable to increase the gene activity; also recorded: caused the induction of HMOX-1 in astrocytes”. For the same molecule, the “increase of PGK-1 gene activity” value in experiment [5] was “capable to increase the gene activity”. Also, the “increase of VEGF gene activity” value in experiment [6] was “capable to increase the gene activity”.

In the case of `C=CC[C@@H]1/C=C(\C)C[C@H](C)C[C@H](OC)[C@H]2O[C@@](O)(C(=O)C(=O)N3CCCC[C@H]3C(=O)O[C@H](/C(C)=C/[C@@H]3CC[C@@H](O)[C@H](OC)C3)[C@H](C)[C@@H](O)CC1=O)[C@H](C)C[C@@H]2OC` [tacrolimus, reference compound], the “skin graft rejection score (0-5)” value in experiment [7] is “smaller score values both on day 9 and on day 10”.

For the molecule `CN(C)Cc1ccc2c(Cl)cc(Cl)c(O)c2n1` [PBT2, reference compound], the “activation of EPO gene expression” value in experiment [3] was “did not induced differences in gene activity”. Further, the “activation of HMOX-1 gene expression” value in experiment [4] was “did not induced differences in gene activity”.

Source of the values: US10287265B2, “Enantiomers of 8-hydroxyquinoline derivatives and the synthesis thereof” (AVIDIN Co. Ltd., priority 2015, dated 2019).
